What was measured:
[1] = system: H1650 (LC); assay: MTT cell viability, H1650; assay type: cell-based, human; conditions: relative IC50
Experimental: (§1) Cell culture: In the following examples, unless otherwise specified, all cell lines are purchased from American Type Culture Collection and cultured in American Type Culture Collection (ATCC)-recommended media, with fetal bovine serum (FBS) to a final concentration of 10% and 1×penicillin/streptomycin at 37° C. with 5% CO2 in a cell culture incubator, unless otherwise specified. Unless otherwise specified, culture is 2D. Where culture is 3D, low attachment plates are used, with the same media. C4-2B (parental cell line and drug-resistant cells derived therefrom) are cultured in RPMI-1640 with 10% FBS. MDVR cells (an Enzalutamide-resistant variety of C4-2B prostate cancer cells formed as described in Example 4 below) are cultured as indicated for the parental C4-2B cells. 22RV1 Prostate Cancer (PC) cells (ATCC® CRL-2505™, a human prostate carcinoma cell line of epithelial morphology) are cultured in RPMI-1640 with 10% FBS. A549 cells (ATCC® CCL-185™, a human lung carcinoma cell line of epithelial morphology) are cultured in F-12K medium with 10% FBS. A549/DDP cells (Cells were described in DOI: 10.3892/mmr.2014.2163 and in doi: 10.7150/jca.19426; cisplatin resistant cells may be established from exposing parental A549 cells to cisplatin for an extended time). MDR A549/cisplatin lung adenocarcinoma cell line, drug resistant) are cultured in F-12K medium with 10% FBS. H1975 cells (ATCC® CRL-5908™, a human adenocarcinoma non-small cell lung cancer cell line of epithelial morphology) are cultured in RPMI-1640 medium with 10% FBS; H1975 cells are a cell model for human lung cancer that is resistant to Gefitinib (an EGFR inhibitor drug used for treatment of certain breast, lung and other cancers). H1650 cells (ATCC® CRL-5883™, a adenocarcinoma/bronchoalveolar carcinoma lung cancer cell line of epithelial morphology) are cultured in RPMI-1640 medium with 10% FBS. […]

[2] = system: A549DDP (LC); assay: MTT cell viability, A549DDP; assay type: cell-based, human; conditions: 48 h / 24 hours, relative IC50
Experimental: as §1
(§2) […] For each cell line, the IC50 is determined for each drug, i.e. the ELSD, the ALSD, and for the corresponding unconjugated statin (Simvastatin), in concentrations from 0.1-100 μM. […]

[3] = system: H446 (LC); assay: MTT cell viability, H446; assay type: cell-based, human; conditions: relative IC50
Experimental: as §1

[4] = system: A549 (LC); assay: MTT cell viability, A549; assay type: cell-based, human; conditions: 48 h / 24 hours, relative IC50
Experimental: as §1

[5] = system: PC9 (LC); assay: MTT cell viability, PC9; assay type: cell-based, human; conditions: 48 h / 24 hours, relative IC50
Experimental: as §1

[6] = system: H1975 (LC); assay: MTT cell viability, H1975; assay type: cell-based, human; conditions: relative IC50
Experimental: as §1

[7] = system: 22Rv1 human prostate carcinoma tumors; assay: Tumor volume of 22Rv1 tumors grown subcutaneously in mice; assay type: in vivo; conditions: 5 mg/kg, intravenously injected
Experimental: Example 1D: 22Rv1 human prostate carcinoma cells are cultured as described above, separated from the medium, resuspended in 50% phosphate buffered saline (PBS) and 50% BD Matrigel™ (BD Biosciences, CA), and then the re-suspended cells are injected and grown subcutaneously in mice. […] The decrease of the THSD in the tumors at 2 and 4 weeks, respectively, as determined by NIR signal, is less than about 30%.
Example 1E: 22Rv1 human prostate carcinoma cells are cultured, injected and grown subcutaneously in mice as described above in example 1D. Tumor volume is monitored by measuring the size by caliper and calculating volume as described in example 9 below. The mice are intravenously injected with the following: ALSD of formula FIId, “DZ2a”, compound 7, the corresponding unconjugated dye (here: DZ1), unconjugated Simvastatin, a statin drug (SIM), and docetaxel (DOC), a cancer drug, and a mixture of the ALSD with DOC. Each active was administered in an amount of 5 mg/kg for the ALSD, DZ1, and SIM, except, in case of DOC, 8 mg/kg. A slower rate of increased tumor volume indicates tumor suppressive activity.

[8] = system: EZ-resistant C4-2B (PC); assay: MTT cell viability, EZ-resistant C4-2B (MDVR); assay type: cell-based; conditions: Homo sapiens, 48 h / 24 hours, relative IC50
Experimental: as §1, with “FBS.” for “FBS. H1975 cells (ATCC® CRL-5908™, a human adenocarcinoma non-small cell lung cancer cell line of epithelial morphology) are cultured in RPMI-1640 medium with 10% FBS; H1975 cells are a cell model for human lung cancer that is resistant to Gefitinib (an EGFR inhibitor drug used for treatment of certain breast, lung and other cancers). H1650 cells (ATCC® CRL-5883™, a adenocarcinoma/bronchoalveolar carcinoma lung cancer cell line of epithelial morphology) are cultured in RPMI-1640 medium with 10% FBS.”

[9] = system: 22RV1 (PC); assay: MTT cell viability, 22RV1; assay type: cell-based, human; conditions: Homo sapiens, 22Rv1, 22RV1, treated for 48 h /, relative IC50
Experimental: as §1, §2

IC50 ([1]; 48 h / 24 hours) [µM] | IC50 [2] [µM] | IC50 ([3]; 48 h / 24 hours) [µM] | IC50 [4] [µM] | IC50 [5] [µM] | IC50 ([6]; 48 h / 24 hours) [µM] | IC50 ([1]; Homo sapiens, NCI-H1650, 48 h / 24 hours) [µM] | IC50 ([2]; Homo sapiens, A549/DDP) [µM] | IC50 ([3]; Homo sapiens, NCI-H446, 48 h / 24 hours) [µM] | IC50 ([4]; Homo sapiens) [µM] | IC50 ([5]; Homo sapiens) [µM] | IC50 [9] [µM] | IC50 ([6]; Homo sapiens, NCI-H1975, 48 h / 24 hours) [µM] | Compound | tumor suppressive activity (tumor volume increase) [7] | IC50 [8] [µM]
> 50 | > 50 | > 50 | > 50 | > 50 | > 50 |  |  |  |  |  |  |  | CC1(C)C(/C=C/C2=C(Cl)C(=C/C=C3/N(CCCCCC(=O)O)c4ccccc4C3(C)C)/CCC2)=[N+](CCCCS(=O)(=O)[O-])c2ccccc21 [DZ1] | no significant tumor suppressive activity | 
 |  |  |  |  |  | 33.3 | 30 | 39 | > 50 | 33 | 38.7 | > 50 | CCC(C)(C)C(=O)O[C@H]1C[C@@H](C)C=C2C=C[C@H](C)[C@H](CC[C@@H]3C[C@@H](O)CC(=O)O3)[C@H]21 [Simvastatin] |  | 25.5

Source: patent US20230116399A1, “Tumor Homing Statin Derivatives” (Da Zen Theranostics, Inc., priority 2019, published 2023)
